Several values for one entry are separate records, joined by “and”; a condition that tells them apart may be missing. Identical values can stand only once. Entries after “also recorded” stand apart in the source; their conditions may differ.

One assay relates to human EGFR. Briefly: Ligand binding assay with biotinylated peptide (NeutrAvidin-HRP/ABTS, 405 nm). The conditions noted are these: for Relative binding: melanoma cells, 1 h at 37 °C, (OD x nM - OD 0 nM)/OD 0 nM at 405 nm, triplicates; for optimum concentration for binding to EGFR: concentrations tested 10, 50 and 500 nM. As for the experimental part:
An experiment was performed to test the ability of Sh-EGFl-1 peptide interaction with human receptor. Ligand binding assay, adapted from King et al. was performed with modifications using human cells. Both Sh-EGFl-1 and rhEGF were first conjugated with N-hydroxysuccinimidobiotin (NHS-biotin) and were added to human cells. Any binding of peptide to EGFR was detected through the reaction of NeutrAvidin conjugated with horseradish peroxidase enzyme and 2,2′-azino-bis-3-ethylbenzothiazoline-6-sulfonic acid (ABTS) as substrate.
A short peptide sequence derived from the protein translation of Contig 498513, was submitted to order. The 4.9 kDa Sh-EGFl-1 peptide (H-NINECFSSPCENQGICQDEIDGYNCVCQPGFTGTHCESSMLNHVI-OH) was synthesized by Mimotopes Pty. Ltd., Australia through a Fmoc solid-phase peptide chemistry method. A master stock concentration of 1 mg/mL was prepared by diluting lyophilized peptide with PBS buffer pH 7.4. Recombinant human EGF (rhEGF) (H-MNSDSECPLSHDGYCLHDGVCMYIEALDKYACNCVVGYIGERCQYRDLKWWELR-OH) was purchased from Thermo Scientific. For the cell proliferation assay and morphology observation experiments, peptides were added fresh into the serum-free growth medium to concentrations of 10 nM and 50 nM. For the binding affinity assay experiment, biotinylation of Sh-EGFl-1 and rhEGF peptides with NHS–biotin (Sigma Aldrich, Burlington, MA, USA) was performed according to the manufacturer’s instructions. The diluted peptides in PBS pH 7.4 were changed into carbonate buffer 0.1 M carbonate buffer pH 9.5 (0.07 M sodium bicarbonate, 0.03 M sodium carbonate) for an optimal biotinylation environment. A 10 X volume of cold acetone was added to the peptides and vortexed for 15 s. The mixture was incubated for 30 min at −20 °C before being centrifuged at 16,100× g for 24 min at 4 °C. The supernatant was discarded and the pellet was air-dried and fully dissolved in carbonate buffer pH 9.5. A total of 20 mg/mL of NHS–biotin was prepared in 1 mL DMSO. A volume of 0.13 µL and 0.1 µL of NHS–biotin was added to the Sh-EGFl-1 and rhEGF peptides, respectively. Both reaction mixtures were vortexed for a while and incubated in a thermoblock with 400 rpm shaking speed for 4 h at room temperature. Any unattached biotin molecules were sieved out using a PD-10 desalting column containing Sephadex G-25 medium (GE Life Sciences, Chicago, IL, USA). PBS buffer pH 7.4 was used as eluent to collect the conjugated peptides out from the column. The concentration of the biotin-conjugated peptides was determined using a NanoDrop spectrophotometer (Thermo Scientific, Waltham, MA, USA) and BCA assay.
Melanoma cells were seeded at 90% confluency in a 96-well plate and cultured in a humidified incubator at 37 °C, equilibrated with 5% CO2 until the next day. When all cells were attached to the surface, the plate was placed on ice for a while to reduce the protein metabolism rate, so the cells were not easily detached. The medium was removed and cells were washed twice using 200 µL of cold PBS buffer. A volume of 100 µL cold formalin was added to the cells to enhance cell attachment to the surface. The plate was placed on ice for the first 5 min, then continued for another 15 min incubation at room temperature. Cells were washed twice using 200 µL of cold PBS. A total of 100 µL of melanoma growth medium (MEM basal medium and 3% FBS) was added and cells were incubated at 37 °C for 30 min. The medium was discarded and replaced with 100 µL of treatment medium (MEM basal medium supplemented with 0.1% BSA, 200 mM HEPES buffer and Sh-EGFl-1 and rhEGF at concentrations of 10, 50 and 500 nM respectively). Cells were incubated at 37 °C for 1 h. The medium was discarded, and cells were washed twice using 200 µL cold PBS and 0.3 M NaCl. A total of 100 µL horseradish peroxidase (HRP) conjugated with NeutrAvidin solution (Thermo Scientific, Waltham, MA, USA) was added with a concentration of 1:10,000 onto cells and incubated at 37 °C for 1 h. […]

Assay [1] concerns human melanoma cells (CRL-1872). Briefly: Cell morphology observation. Format: cell-based. How it is done:
Human melanoma cells (CRL-1872) were purchased from ATCC, Rocksville, MD, USA. Cells were cultured in a complete growth medium, which consisted of Minimum Essential Medium (MEM) (Gibco, Waltham, MA, USA) supplemented with 10% fetal bovine serum (FBS) (Invitrogen, Waltham, MA, USA) and 1% antibiotic–antimycotic (Invitrogen, Waltham, MA, USA), in a humidified incubator at 37 °C, equilibrated with 5% CO2. Cells were subcultured every two days until reaching confluency in T25 flask (TPP, Trasadingen, Switzerland) before being seeded in designated plates for specific experiment objectives.
Cells were seeded at 80,000 cells per well in a 24-well plate containing 400 µL of complete growth medium. After 24 h of culture, the medium was removed, washed once with PBS, replaced with serum-free medium and left to culture for another 16 h. The medium was removed and replaced with corresponding treatment medium, each in triplicates; 10 nM and 50 nM of Sh-EGFl-1, 10 nM and 50 nM of rhEGF were used as a positive control and serum-free medium was used as a negative control. Cells were cultured in a single plate to track their growth every 24 h during the four days of experiment. […] A crossed line was made at the bottom of each well to mark the four cell-counting areas that were recorded daily using a microscope digital camera. Cells were counted manually based on the images visualized using ImageJ version 2.0.

Where [2] appears, read: 50 nM, recovery from serum starvation.

Turning to “H-MNSDSECPLSHDGYCLHDGVCMYIEALDKYACNCVVGYIGERCQYRDLKWWELR-OH (disulfide) [rhEGF, Recombinant human EGF purchased from Thermo Scientific, reference compound]”, the Relative binding with human EGFR (10 nM) is 12%; in the assay with human EGFR (50 nM), 4% and 3.62%; with human EGFR (500 nM) it was 7.57%. Further, the “optimum concentration for binding to EGFR” value with human EGFR is reported as 10 nM. In addition, in assay [1] (setting [2]), the “cell morphology / attachment” value is listed as “better recovery as the cells were elongated when they attached to the flask surface”.
Turning to “H-NINECFSSPCENQGICQDEIDGYNCVCQPGFTGTHCESSMLNHVI-OH (disulfide) [Sh-EGFl-1, 45 amino acid EGF-like peptide from Stichopus horrens contig 498513, synthesized by Fmoc solid-phase peptide chemistry]”, the Relative binding in the assay on human EGFR (10 nM) was 5%; with human EGFR (50 nM) it was -0.68%; in the assay on human EGFR (500 nM) it was ~10% and 10%. Besides, the “optimum concentration for binding to EGFR” value in the assay on human EGFR turned out to be 500 nM. Further, the “cell morphology / attachment” value is “better recovery as the cells were elongated when they attached to the flask surface; also recorded: most of the cells to lose attachment from the flask except in the presence of 10 nM Sh-EGFl-1” in assay [1] (10 nM, recovery from serum starvation and after medium change at 48 h); “better recovery as the cells were elongated when they attached to the flask surface” in assay [1] (setting [2]).

(Values after PMC9605497, “Potential of Epidermal Growth Factor-like Peptide from the Sea Cucumber Stichopus horrens to Increase the Growth of Human Cells: In Silico Molecular Docking Approach” (Marine Drugs, 2022).)
